Laboratory results: patent US10730848B2 (priority 2013, dated 2020)
“Also recorded” adds a separate entry of the source. Like-named read-outs stand apart in the source and are kept apart here.

How the values were obtained:
[1] = system: anthrax lethal toxin (LT); assay: cells; assay type: cell-based, murine
[2] = system: anthrax lethal toxin (LT); assay type: cell-based
[3] = system: influenza A/WSN/33 virus; assay type: cell-based
[4] = system: THP-1 cells; assay type: cell-based, human
[5] = system: F. tularensis LVS; assay type: cell-based
[6] = system: acidic compartments; assay type: cell-based
[7] = system: LT; conditions: read-out: IC50 of previously reported toxin entry inhibitors; cited from earlier work
[8] = system: EGFR; assay type: cell-based
[9] = Mus musculus, RAW264.7, read-out: IC50, inhibition of LT-induced cell death
[10] = Mus musculus, RAW264.7, read-out: IC50 (In uM)

Cc1cccc(C)c1NC(=O)N/N=C/c1ccc(N=[N+]=[N-])cc1F [Compound 3, N^1-(4-AZIDO-2-FLUOROBENZYLIDENE)-N^4-(2,6-DIMETHYLPHENYL)SEMICARBAZONE]
IC50 [1, 9]: 2.2 µM | protection against LT after UV irradiation and washout (media exchange) [2]: did not provide protection; also recorded: did not offer statistically significant protection

NC(=O)c1ncn([C@@H]2O[C@H](CO)[C@@H](O)[C@H]2O)n1 [ribavirin, reference compound]
influenza virus infection (reporter activation) [3]: effectively blocked reporter activation

Cc1cccc(C)c1NC(=O)N/N=C/c1c(F)c(F)c(N=[N+]=[N-])c(F)c1F [Compound 5, N^1-(4-AZIDO-2,3,5,6-TETRAFLUOROBENZYLIDENE)-N^4-(2,6-DIMETHYLPHENYL)SEMICARBAZONE]
protection of cells from LT (in words) [1]: poor inhibitor; also recorded: only weakly protective | protection against LT after UV irradiation and washout (media exchange) [2]: statistically significant protection; also recorded: most effective irreversible protection; also recorded: conferred irreversible resistance to LT

bafilomycin A1 [reference compound]
trafficking of Texas-red dextran to phagosomes [4]: Neither EGA nor bafilomycin A1 inhibited | phagocytic uptake of F. tularensis LVS [5]: Neither EGA nor bafilomycin A1 blocked | cell-associated Lysotracker Red fluorescence (neutralization of acidic compartments) [6]: markedly decreased

CCN(CC)CCCC(C)Nc1c2ccc(Cl)cc2nc2ccc(OC)cc12 (stereo not shown) [quinacrine]
IC50 [7]: 40 µM

Cc1cccc(C)c1NC(=O)N/N=C/c1ccc(N=[N+]=[N-])cc1 [Compound 4, N^1-(4-AZIDOBENZYLIDENE)-N^4-(2,6-DIMETHYLPHENYL)SEMICARBAZONE]
IC50 ([1]; Mus musculus, RAW264.7): 2.8 µM | IC50 [1, 10]: 2.82 µM | IC50 [1, 9]: ~3 µM | protection against LT after UV irradiation and washout (media exchange) [2]: retained viability; also recorded: statistically significant protection; also recorded: conferred irreversible resistance to LT

CCOC(=O)C1=C[C@@H](OC(CC)CC)[C@H](NC(C)=O)[C@@H](N)C1 [oseltamivir, reference compound]
influenza virus infection (reporter activation) [3]: exhibited no protection

CCN(CC)CCCC(C)Nc1ccnc2cc(Cl)ccc12 (stereo not shown) [chloroquine]
IC50 [7]: 100 µM

CCc1cccc(CC)c1NC(=O)N/N=C/c1ccc(Br)cc1 [Compound 9c, N^1-(4-BROMOBENZYLIDENE)-N^4-(2,6-DIETHYLPHENYL)SEMICARBAZONE]
IC50 [1]: > 12.5 µM | IC50 ([1]; Mus musculus, RAW264.7): 16.7 µM | IC50 [1, 10]: > 12.5 µM | IC50 [1, 9]: > 12.5 µM

Cl.N [ammonium chloride, reference compound]
IC50 [7]: 5000 µM | EGFR stabilization at 60 minutes [8]: inhibit EGF-induced receptor degradation | cell-associated Lysotracker Red fluorescence (neutralization of acidic compartments) [6]: markedly decreased
